Where “and” joins values, the source holds several entries; their conditions need not be identical. Equal entries are not always repeated.
Target: T1, LspPae (lipoprotein signal peptidase II from Pseudomonas aeruginosa) (Pseudomonas aeruginosa, UniProt Q9HVM5)
T1 construct: made in house
T1 sequence (Q9HVM5 1-169): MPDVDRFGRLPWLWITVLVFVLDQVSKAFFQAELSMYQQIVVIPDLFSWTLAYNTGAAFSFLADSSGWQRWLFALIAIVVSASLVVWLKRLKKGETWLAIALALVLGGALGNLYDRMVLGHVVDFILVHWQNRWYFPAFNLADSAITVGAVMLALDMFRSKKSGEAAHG
Test: FRET lipopeptide peptidase assay, LspPae
Assay type: biochemical
Settings: for Fluorescence (RFU): FRET substrate + LspA + Myxovirescin; for Rate (RFU/min) / Normalised rate (Vi/V0): replicates 1 and 2; for Ki: estimated Ki’ (apparent inhibition constant)
Description: FRET activity assays. A FRET based assay was developed using a labelled lipopeptide substrate (Supplementary Methods, Supplementary Fig. 3b) to directly monitor the protease activity of LspA. The optimised LspMrs assay buffer included 100 mM Tris/HCl pH 7.8, 150 mM NaCl and 0.09%(w/v) DDM. The corresponding optimized buffer for LspPae included 100 mM MES/NaOH pH 5.6, 150 mM NaCl and 0.05%(w/v) LMNG. All assays were performed at 37 °C.
Reaction mixtures were prepared by vortexing (Clifton, cyclone CM-1) for 2 s and incubated at 37 °C, 800 rpm for 10 to 30 min. […] For dose-response assays, the final DMSO concentration in all reactions was 10%(v/v). Reaction mixtures were pipetted into wells of a 96- (Thermo Scientific) or a 384-well plate (4titude®) and incubated for 10 min at 37 °C in a SpectraMax M3 or a SpectraMax M5e plate reader (Molecular devices) prior to starting the assay. Assays were initiated by adding enzyme to a final concentration in the range 10–300 nM. Total reaction mixture volume was 50 μL. Reactions were monitored by fluorescence (Ex/Em, 320 nm/420 nm) for 30 to 60 min at 37 °C. Initial rates were calculated from the fluorescence intensity versus time progress curves (Supplementary Figs. 5 and 6). Occasionally, lag periods in the progress curves were observed (Supplementary Discussion). In such cases, initial rates were calculated after the lag period had passed (typically 1–5 min) and a steady rate had been established. Dose-response plots to determine IC50 values were generated using Prism® 5 software from GraphPad.
It was possible to convert units of fluorescence change into moles of substrate consumed or products formed because pure products of LspA action on Abz-LALAGC*SS-nY-NH2 had been synthesized and were available. These were used to create a standard curve of fluorescence versus moles of the two products in equimolar amounts and to calculate specific activity values. […]
One consequence of LspMrs having a relatively low specific activity is that, in order to get a reliable signal in activity assays, it was necessary to raise enzyme concentration. For kinetic measurements generally, it is desirable to use an enzyme concentration that is much lower than that of the substrate. In this situation, the usual assumption that added and free substrate concentrations are equal is valid. At high enzyme concentrations [E] therefore, and especially in the case of tight ligand binding where the inhibition constant, Ki, is small, a measured IC50 is limited to [E]/2 4–6. In such circumstances, a meaningful IC50 or Ki can only be obtained with considerable effort. With a few exceptions in the current study, this situation prevailed with both LspA orthologs where IC50 values came close to [E]/2 (Table 1 and Supplementary Table 3, Supplementary Fig. 6). […]
Inhibition of LspA from E. coli by globomycin has been described as non-competitive7. The evidence provided in support o f this conclusion included an insensitivity of IC 50 to substrate concentration and the fact that the Vmax but not the K m changed with globomycin concentration. It was of interest to determine if a similar mode of inhibition applied to LspPae and LspMrs. From published work7–9 and from FRET-based kinetics measurements reported here, we know that globomycin binds with high affinity (Supplementary Fig. 6). Tight binding means that a more in-depth analysis must be carried out in order to identify inhibition type. For such analysis, it is important to know active enzyme concentration accurately. Fortunately, it was possible to use the property of tight inhibitor binding to measure the concentration of active enzyme ( Supplementary Fig. 18a). In the case of LspPae, the estimated value and the concentration determined spectroscopically agreed remarkably well. Parenthetically we note that knowing active LspPae concentration accurately enabled a characterization of the myxovirescin sample used in this study. Myxovirescin also binds tightly to LspA (Supplementary Fig. 6). […]

[1] = Suppl. Fig. 18b, [Myxovirescin] 0.02 μM
[2] = Suppl. Fig. 18b, [Myxovirescin] 0.05 μM
[3] = Suppl. Fig. 18b, [Myxovirescin] 0.08 μM
[4] = Suppl. Fig. 18b, [Myxovirescin] 0.1 μM
[5] = Suppl. Fig. 18b, [Myxovirescin] 0.12 μM
[6] = Suppl. Fig. 18b, [Myxovirescin] 0.15 μM
[7] = Suppl. Fig. 18b, [Myxovirescin] 0.25 μM
[8] = Suppl. Fig. 18c, [Myxovirescin] nominal conc. 0.02 μM, corrected conc. 0.01454 μM
[9] = Suppl. Fig. 18c, [Myxovirescin] nominal conc. 0.05 μM, corrected conc. 0.03635 μM
[10] = Suppl. Fig. 18c, [Myxovirescin] nominal conc. 0.08 μM, corrected conc. 0.05816 μM
[11] = Suppl. Fig. 18c, [Myxovirescin] nominal conc. 0.1 μM, corrected conc. 0.0727 μM
[12] = Suppl. Fig. 18c, [Myxovirescin] nominal conc. 0.12 μM, corrected conc. 0.08724 μM
[13] = Suppl. Fig. 18c, [Myxovirescin] nominal conc. 0.15 μM, corrected conc. 0.10905 μM
[14] = Suppl. Fig. 18c, [Myxovirescin] nominal conc. 0.25 μM, corrected conc. 0.18175 μM

## CCCC1OC(=O)C(C)CC(C)CCCCC(=O)CCCC(CC)C=CC=C(COC)CCC(O)C(O)CC(O)CNC1=O (centres unmarked) [myxovirescin, myxovirescin A1]
5-fold molar excess of antibiotic added 20 to 30 min after start of reaction
  inhibitor on-rates: fast
Time 27 min
  Fluorescence (RFU): 524.203 RFU
Time 27.5 min
  Fluorescence (RFU): 527.644 RFU
Time 28 min
  Fluorescence (RFU): 525.326 RFU
Time 28.5 min
  Fluorescence (RFU): 532.036 RFU
Time 29 min
  Fluorescence (RFU): 530.446 RFU
Time 29.5 min
  Fluorescence (RFU): 520.770 RFU
Time 30 min
  Fluorescence (RFU): 525.266 RFU
Time 30.5 min
  Fluorescence (RFU): 523.492 RFU
Time 31 min
  Fluorescence (RFU): 522.555 RFU
Time 31.5 min
  Fluorescence (RFU): 520.169 RFU
Time 32 min
  Fluorescence (RFU): 526.741 RFU
Time 32.5 min
  Fluorescence (RFU): 523.010 RFU
Time 33 min
  Fluorescence (RFU): 519.722 RFU
Time 33.5 min
  Fluorescence (RFU): 528.885 RFU
Time 34 min
  Fluorescence (RFU): 517.843 RFU
Time 34.5 min
  Fluorescence (RFU): 518.721 RFU
Time 35 min
  Fluorescence (RFU): 516.893 RFU
Time 35.5 min
  Fluorescence (RFU): 521.148 RFU
Time 36 min
  Fluorescence (RFU): 519.865 RFU
Time 36.5 min
  Fluorescence (RFU): 522.746 RFU
Time 37 min
  Fluorescence (RFU): 519.603 RFU
Time 37.5 min
  Fluorescence (RFU): 522.440 RFU
Time 38 min
  Fluorescence (RFU): 518.255 RFU
Time 38.5 min
  Fluorescence (RFU): 516.274 RFU
Time 39 min
  Fluorescence (RFU): 516.879 RFU
Time 39.5 min
  Fluorescence (RFU): 521.400 RFU
Time 40 min
  Fluorescence (RFU): 509.974 RFU
Time 40.5 min
  Fluorescence (RFU): 516.718 RFU
Time 41 min
  Fluorescence (RFU): 513.520 RFU
Time 41.5 min
  Fluorescence (RFU): 514.018 RFU
Time 42 min
  Fluorescence (RFU): 520.839 RFU
Time 42.5 min
  Fluorescence (RFU): 520.491 RFU
Time 43 min
  Fluorescence (RFU): 514.424 RFU
Time 43.5 min
  Fluorescence (RFU): 516.271 RFU
Time 44 min
  Fluorescence (RFU): 509.335 RFU
Time 44.5 min
  Fluorescence (RFU): 511.506 RFU
Time 45 min
  Fluorescence (RFU): 512.926 RFU
Time 45.5 min
  Fluorescence (RFU): 515.088 RFU
Time 46 min
  Fluorescence (RFU): 509.497 RFU
Time 46.5 min
  Fluorescence (RFU): 509.153 RFU
Time 47 min
  Fluorescence (RFU): 505.807 RFU
Time 47.5 min
  Fluorescence (RFU): 508.613 RFU
Time 48 min
  Fluorescence (RFU): 508.252 RFU
Time 48.5 min
  Fluorescence (RFU): 514.611 RFU
Time 49 min
  Fluorescence (RFU): 508.852 RFU
Time 49.5 min
  Fluorescence (RFU): 511.333 RFU
Time 50 min
  Fluorescence (RFU): 507.505 RFU
Time 50.5 min
  Fluorescence (RFU): 508.404 RFU
Time 51 min
  Fluorescence (RFU): 511.832 RFU
IC50, 20 nM LspPae, substrate 5 µM
  IC50: 9.76 nM and 12.3 nM
IC50, 20 nM LspPae, substrate 7.5 µM
  IC50: 10.4 nM and 12.9 nM
IC50, 20 nM LspPae, substrate 10 µM
  IC50: 11.1 nM and 14.4 nM
IC50, 20 nM LspPae, substrate 15 µM
  IC50: 8.51 nM and 11.1 nM
IC50, 20 nM LspPae, substrate 20 µM
  IC50: 9.14 nM and 13.9 nM
IC50, 20 nM LspPae, substrate 30 µM
  IC50: 11.4 nM and 13.8 nM
IC50, FRET, 0.1 µM enzyme, 30 µM substrate, initial rates
  IC50: 53 nM
IC50, LspPae concentration 10 nM
  IC50: 4.1 nM and 5 nM
IC50, LspPae concentration 20 nM
  IC50: 13.5 nM and 21.2 nM
IC50, LspPae concentration 40 nM
  IC50: 20.3 nM and 26.1 nM
IC50, LspPae concentration 60 nM
  IC50: 24.5 nM and 34.1 nM
IC50, LspPae concentration 80 nM
  IC50: 41.7 nM and 50.6 nM
IC50, LspPae concentration 100 nM
  IC50: 49.2 nM and 55.8 nM
LspPae block, log [myxo] (uM) -0.82
  Rate (RFU/min): 0.2 RFU/min
LspPae block, log [myxo] (uM) -0.92
  Rate (RFU/min): 0.1 RFU/min and 0.2 RFU/min
LspPae block, log [myxo] (uM) -1.00
  Rate (RFU/min): 0.1 RFU/min and 0.2 RFU/min
LspPae block, log [myxo] (uM) -1.10
  Rate (RFU/min): 1.3 RFU/min and 1.5 RFU/min
LspPae block, log [myxo] (uM) -1.30
  Rate (RFU/min): 5.8 RFU/min and 6.2 RFU/min
LspPae block, log [myxo] (uM) -1.70
  Rate (RFU/min): 10.2 RFU/min and 10.1 RFU/min
LspPae block, log [myxo] (uM) -2.00
  Rate (RFU/min): 11.4 RFU/min and 11.5 RFU/min
[1]
  Normalised rate (Vi/V0): 0.8634 and 0.8943
  Rate (RFU/min): 45.52 RFU/min and 45.67 RFU/min
[2]
  Normalised rate (Vi/V0): 0.6591 and 0.6875
  Rate (RFU/min): 34.75 RFU/min and 35.11 RFU/min
[3]
  Normalised rate (Vi/V0): 0.4365 and 0.4511
  Rate (RFU/min): 23.01 RFU/min and 23.04 RFU/min
[4]
  Normalised rate (Vi/V0): 0.2771 and 0.2863
  Rate (RFU/min): 14.61 RFU/min and 14.62 RFU/min
[5]
  Normalised rate (Vi/V0): 0.09825 and 0.09947
  Rate (RFU/min): 5.18 RFU/min and 5.08 RFU/min
[6]
  Normalised rate (Vi/V0): 0.01309 and 0.02976
  Rate (RFU/min): 0.69 RFU/min
[7]
  Normalised rate (Vi/V0): 0.01574 and 0.02741
  Rate (RFU/min): 0.83 RFU/min and 1.4 RFU/min
[8]
  Normalised rate (Vi/V0): 0.8634 and 0.8943
  Rate (RFU/min): 45.52 RFU/min and 45.67 RFU/min
[9]
  Normalised rate (Vi/V0): 0.6591 and 0.6875
  Rate (RFU/min): 34.75 RFU/min and 35.11 RFU/min
[10]
  Normalised rate (Vi/V0): 0.4365 and 0.4511
  Rate (RFU/min): 23.01 RFU/min and 23.04 RFU/min
[11]
  Normalised rate (Vi/V0): 0.2771 and 0.2863
  Rate (RFU/min): 14.61 RFU/min and 14.62 RFU/min
[12]
  Normalised rate (Vi/V0): 0.09825 and 0.09947
  Rate (RFU/min): 5.18 RFU/min and 5.08 RFU/min
[13]
  Normalised rate (Vi/V0): 0.01309 and 0.02976
  Rate (RFU/min): 0.69 RFU/min
[14]
  Normalised rate (Vi/V0): 0.01574 and 0.02741
  Rate (RFU/min): 0.83 RFU/min and 1.4 RFU/min
Average IC50, 20 nM LspPae, substrate 2.5 or 5 to 30 µM
  IC50: ~10 nM
Morrison analysis, 30 µM substrate, 0.1 µM LspPae
  Ki: 0.0476 ± 0.128 nM
From dependence of IC50 on enzyme concentration, IC50 = Ki’ + [E]/2
  Ki: 2.69 ± 2.8 nM

From PMC6952399, “Structures of lipoprotein signal peptidase II from Staphylococcus aureus complexed with antibiotics globomycin and myxovirescin” (Nature Communications, 2020)
